Results reported in PubChem BioAssay AID256 (DTP/NCI, 2004).
Toxic doses and inconclusive results are not listed. The calls were made as follows: active = survival T/C of 150% or more; inactive = T/C below 125% in these data.

Test system: CD2F1 mice, L1210 leukemia ip, survival T/C
Assay: NCI In Vivo Anticancer Drug Screen. Data for tumor model L1210 Leukemia (intraperitoneal) in CD2F1 (CDF1) mice
Settings: higher = longer survival
Outline: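 Implant tumor; dose compound or vehicle; measure endpoint in both groups; report treated divided by control.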

[1] = endpoint: mean survival time, dose: 100.0 mg/kg/injection, schedule: Q01DX009 (ip), vehicle: saline with Tween-80
[2] = endpoint: mean survival time, dose: 200.0 mg/kg/injection, schedule: Q01DX009 (ip), vehicle: saline with Tween-80
[3] = endpoint: mean survival time, dose: 400.0 mg/kg/injection, schedule: Q01DX009 (ip), vehicle: saline with Tween-80
[4] = endpoint: mean survival time, dose: 50.0 mg/kg/injection, schedule: Q01DX009 (ip), vehicle: Klucel (hydroxypropylcellulose) (HPC)
[5] = endpoint: mean survival time, dose: 100.0 mg/kg/injection, schedule: Q01DX009 (ip), vehicle: Klucel (hydroxypropylcellulose) (HPC)
[6] = endpoint: mean survival time, dose: 200.0 mg/kg/injection, schedule: Q01DX009 (ip), vehicle: Klucel (hydroxypropylcellulose) (HPC)
[7] = endpoint: mean survival time, dose: 200.0 mg/kg/injection, schedule: Q04DX003 (ip), vehicle: saline with Tween-80

Measured: T/C

C/C=C/C[P+](Cc1ccccc1)(c1ccccc1)c1ccccc1
inactive: endpoint: mean survival time, dose: 0.39 mg/kg/injection, schedule: Q01DX009 (ip), vehicle: saline 97 % of control | endpoint: mean survival time, dose: 0.78 mg/kg/injection, schedule: Q01DX009 (ip), vehicle: saline 96 % of control | endpoint: mean survival time, dose: 1.56 mg/kg/injection, schedule: Q01DX009 (ip), vehicle: saline 102 % of control | endpoint: mean survival time, dose: 3.13 mg/kg/injection, schedule: Q01DX009 (ip), vehicle: saline 103 % of control

O=C1c2ccccc2C(=O)c2cc(S(=O)(=O)O)ccc21
inactive: endpoint: mean survival time, dose: 100.0 mg/kg/injection, schedule: Q01DX001 (ip), vehicle: Klucel (hydroxypropylcellulose) (HPC) 104 % of control | [1] 98 % of control | endpoint: mean survival time, dose: 200.0 mg/kg/injection, schedule: Q01DX001 (ip), vehicle: Klucel (hydroxypropylcellulose) (HPC) 96 % of control | [2] 90 % of control | endpoint: mean survival time, dose: 400.0 mg/kg/injection, schedule: Q01DX001 (ip), vehicle: Klucel (hydroxypropylcellulose) (HPC) 104 % of control | [3] 90 % of control

O=[N+]([O-])O.[Ho]
inactive: endpoint: mean survival time, dose: 100.0 mg/kg/injection, schedule: Q01DX009 (ip), vehicle: saline 94 % of control

CC(N)(CO)C(=O)O (stereo not given)
inactive: endpoint: mean survival time, dose: 100.0 mg/kg/injection, schedule: Q04DX003 (ip), vehicle: saline 108 % of control | endpoint: mean survival time, dose: 200.0 mg/kg/injection, schedule: Q04DX003 (ip), vehicle: saline 113 % of control | endpoint: mean survival time, dose: 400.0 mg/kg/injection, schedule: Q04DX003 (ip), vehicle: saline 103 % of control

Nc1ccc2nc3c4ccccc4c(O)n3nc2c1
inactive: [1] 89 % of control | [2] 104 % of control

COc1ccc(NC(=O)Nc2ccc(C)cc2C)cc1
inactive: [1] 86 % of control | [2] 88 % of control

O=C(OCC(OC(=O)c1ccccc1)C(OC(=O)c1ccccc1)C(COC(=O)c1ccccc1)OC(=O)c1ccccc1)c1ccccc1 (stereo not given)
inactive: [4] 97 % of control | [5] 97 % of control | [6] 86 % of control

CC(=O)Nc1ncc2ccccc2c1-c1ccc(NC(=O)CCN(CCCl)CCCl)cc1
inactive: endpoint: mean survival time, dose: 6.25 mg/kg/injection, schedule: Q04DX003 (ip), vehicle: other 101 % of control | endpoint: mean survival time, dose: 12.5 mg/kg/injection, schedule: Q04DX003 (ip), vehicle: other 111 % of control | endpoint: mean survival time, dose: 25.0 mg/kg/injection, schedule: Q04DX003 (ip), vehicle: other 112 % of control

Cc1cc(N(CCCl)CCCl)c(C)cc1NC(=O)c1ccccc1
inactive: endpoint: mean survival time, dose: 4.0 mg/kg/injection, schedule: Q01DX009 (ip), vehicle: saline 106 % of control | endpoint: mean survival time, dose: 6.0 mg/kg/injection, schedule: Q01DX009 (ip), vehicle: saline 115 % of control | endpoint: mean survival time, dose: 10.0 mg/kg/injection, schedule: Q01DX009 (ip), vehicle: saline 113 % of control | endpoint: mean survival time, dose: 18.0 mg/kg/injection, schedule: Q01DX009 (ip), vehicle: saline 121 % of control | endpoint: mean survival time, dose: 30.0 mg/kg/injection, schedule: Q01DX009 (ip), vehicle: saline 124 % of control

S=C(S)NNc1ccccc1
inactive: [7] 91 % of control

CC(=O)OC1(C)CC(C)(C)N=[N+]1[O-] (stereo not given)
inactive: endpoint: mean survival time, dose: 25.0 mg/kg/injection, schedule: Q01DX009 (ip), vehicle: Klucel (hydroxypropylcellulose) (HPC) 96 % of control | [4] 101 % of control | [5] 101 % of control | [6] 105 % of control

Nc1nc(N)c(-c2ccc(Cl)cc2)c(COc2ccc(CCC3(CCl)OCCO3)cc2)n1
inactive: endpoint: mean survival time, dose: 25.0 mg/kg/injection, schedule: Q01DX001 (ip), vehicle: saline with Tween-80 101 % of control | endpoint: mean survival time, dose: 50.0 mg/kg/injection, schedule: Q01DX001 (ip), vehicle: saline with Tween-80 101 % of control | endpoint: mean survival time, dose: 100.0 mg/kg/injection, schedule: Q01DX001 (ip), vehicle: saline with Tween-80 108 % of control

NC(=S)NNC(N)=S
inactive: [1] 101 % of control | endpoint: mean survival time, dose: 100.0 mg/kg/injection, schedule: Q04DX003 (ip), vehicle: saline with Tween-80 104 % of control | [2] 95 % of control | [7] 102 % of control | [3] 110 % of control | endpoint: mean survival time, dose: 400.0 mg/kg/injection, schedule: Q04DX003 (ip), vehicle: saline with Tween-80 107 % of control

COc1nc(NC2OC(CO)C(O)C(O)C2O)c(Br)c(=O)n1C (stereo not given)
inactive: endpoint: median survival time, dose: 12.5 mg/kg/injection, schedule: Q01DX005 (ip), vehicle: saline with Tween-80 101 % of control | endpoint: median survival time, dose: 25.0 mg/kg/injection, schedule: Q01DX005 (ip), vehicle: saline with Tween-80 101 % of control | endpoint: median survival time, dose: 50.0 mg/kg/injection, schedule: Q01DX005 (ip), vehicle: saline with Tween-80 100 % of control | endpoint: median survival time, dose: 100.0 mg/kg/injection, schedule: Q01DX005 (ip), vehicle: saline with Tween-80 102 % of control | endpoint: median survival time, dose: 200.0 mg/kg/injection, schedule: Q01DX005 (ip), vehicle: saline with Tween-80 96 % of control

CC(=O)C1CCC2C3=CC=C4CC(OC(=O)CCC(C)C)CCC4(C)C3CCC12C (stereo not given)
inactive: [1] 105 % of control | [2] 97 % of control | [3] 101 % of control

C1CCN(CN2CCCCC2)CC1
inactive: endpoint: mean survival time, dose: 12.5 mg/kg/injection, schedule: Q01DX009 (ip), vehicle: saline 103 % of control | endpoint: mean survival time, dose: 25.0 mg/kg/injection, schedule: Q01DX009 (ip), vehicle: saline 98 % of control | endpoint: mean survival time, dose: 25.0 mg/kg/injection, schedule: Q04DX003 (ip), vehicle: saline 90 % of control | endpoint: mean survival time, dose: 50.0 mg/kg/injection, schedule: Q01DX009 (ip), vehicle: saline 97 % of control | endpoint: mean survival time, dose: 50.0 mg/kg/injection, schedule: Q04DX003 (ip), vehicle: saline 92 % of control

O=c1[nH][nH]c(=O)c2c1ncn2C1OC(CO)C(O)C1O (stereo not given)
inactive: endpoint: mean survival time, dose: 12.5 mg/kg/injection, schedule: Q01DX005 (ip), vehicle: water 101 % of control | endpoint: mean survival time, dose: 25.0 mg/kg/injection, schedule: Q01DX005 (ip), vehicle: water 100 % of control | endpoint: mean survival time, dose: 50.0 mg/kg/injection, schedule: Q01DX005 (ip), vehicle: water 101 % of control | endpoint: mean survival time, dose: 100.0 mg/kg/injection, schedule: Q01DX005 (ip), vehicle: water 101 % of control | endpoint: mean survival time, dose: 200.0 mg/kg/injection, schedule: Q01DX005 (ip), vehicle: water 100 % of control

COc1cc(C)n2nnnc2n1
inactive: endpoint: mean survival time, dose: 100.0 mg/kg/injection, schedule: Q01DX001 (ip), vehicle: saline 107 % of control

Clc1ccc(CC[PH+]2CC=CC2)cc1.Clc1ccc(CC[PH+]2CC=CC2)cc1.[Cl][Ni][Cl]
inactive: endpoint: mean survival time, dose: 12.5 mg/kg/injection, schedule: Q01DX009 (ip), vehicle: DMSO 101 % of control | endpoint: mean survival time, dose: 25.0 mg/kg/injection, schedule: Q01DX009 (ip), vehicle: DMSO 101 % of control | endpoint: mean survival time, dose: 25.0 mg/kg/injection, schedule: Q04DX002 (ip), vehicle: saline with Tween-80 91 % of control | endpoint: mean survival time, dose: 50.0 mg/kg/injection, schedule: Q04DX002 (ip), vehicle: saline with Tween-80 95 % of control

CCOC(=O)Nc1cccnc1
inactive: endpoint: mean survival time, dose: 75.0 mg/kg/injection, schedule: Q01DX001 (ip), vehicle: saline with Tween-80 104 % of control | endpoint: mean survival time, dose: 150.0 mg/kg/injection, schedule: Q01DX001 (ip), vehicle: saline with Tween-80 98 % of control | endpoint: mean survival time, dose: 300.0 mg/kg/injection, schedule: Q01DX001 (ip), vehicle: saline with Tween-80 106 % of control

CCCC(=O)Nc1ccn(C2OC(CO)C(O)C2O)c(=O)n1 (stereo not given)
inactive: endpoint: mean survival time, dose: 50.0 mg/kg/injection, schedule: Q01DX009 (ip), vehicle: saline with Tween-80 98 % of control | endpoint: mean survival time, dose: 50.0 mg/kg/injection, schedule: Q04DX002 (ip), vehicle: saline 100 % of control | [1] 102 % of control | endpoint: mean survival time, dose: 100.0 mg/kg/injection, schedule: Q04DX002 (ip), vehicle: saline 97 % of control | [2] 102 % of control | endpoint: mean survival time, dose: 200.0 mg/kg/injection, schedule: Q04DX002 (ip), vehicle: saline 97 % of control | [3] 104 % of control | endpoint: mean survival time, dose: 400.0 mg/kg/injection, schedule: Q04DX002 (ip), vehicle: saline 97 % of control | endpoint: mean survival time, dose: 600.0 mg/kg/injection, schedule: Q04DX002 (ip), vehicle: saline 97 % of control

O=C(O)c1c2c(nc3ccccc13)-c1cccc3c1N(CCC3)C2
inactive: endpoint: mean survival time, dose: 6.25 mg/kg/injection, schedule: Q01DX009 (ip), vehicle: other 100 % of control | endpoint: mean survival time, dose: 12.5 mg/kg/injection, schedule: Q01DX009 (ip), vehicle: other 103 % of control | endpoint: mean survival time, dose: 25.0 mg/kg/injection, schedule: Q01DX009 (ip), vehicle: other 103 % of control | endpoint: mean survival time, dose: 50.0 mg/kg/injection, schedule: Q01DX009 (ip), vehicle: other 100 % of control | endpoint: mean survival time, dose: 100.0 mg/kg/injection, schedule: Q01DX001 (ip), vehicle: other 100 % of control | endpoint: mean survival time, dose: 200.0 mg/kg/injection, schedule: Q01DX001 (ip), vehicle: other 97 % of control | endpoint: mean survival time, dose: 400.0 mg/kg/injection, schedule: Q01DX001 (ip), vehicle: other 97 % of control
